For this experiment, the system named is peripheral blood mononuclear cells (PBMC). The experiment can be described thus: PBMC cell proliferation analysis (BrdU, cytofluorimetry). Format: cell-based, human. Particulars: PBMC proliferative response vs absence of stimulation (baseline); cut-off P.I. 2. The method, then:
Next, peripheral blood mononuclear cells were separated. The peripheral blood mononuclear cells (PBMC) were separated by density gradient centrifugation. For this aim, 20 ml of “buffy coat” of healthy donors from the immune-transfusion Service of Ospedale di Borgomanero (Italy) were used for each experiment, thus obtaining an average yield of 200×10^6 PBMC/buffy. The amount of separated cells was determined by cell count in Burker's chambers, using Turk's dye, which allows to discriminating between mononuclear and polymorphonuclear cells. […]
Then, the cell proliferation analysis was performed. Cell proliferation was assessed with a cytofluorimetric technique by using the bromodeoxyuridine (BrdU) nuclear labeling protocol. […] Following to 16-hour incubation at 37° C. under humidified atmosphere, 5% CO2, the cell proliferation was analyzed by a cytofluorirnetric technique. […] The cells were analyzed within 24 hours from their preparation by using a cytofluorimeter FACScalibur from Becton Dikinson Company and the analysis program CellQuest.
Results were expressed as cell proliferation index (P.I.), being calculated as ratio of the percentage of proliferating cells in the presence of stimulus and the percentage of the same in the absence of stimulation, A P.I. value greater than 2 was considered acceptable (cut-off value). […]

“Also recorded” adds a separate entry of the source.

As to Phytohaemagglutinin [PHA], the “cell proliferation index (P.I.)” value is on record as “significantly higher; also recorded: greater than the cut-off value”.

These data come from patent US10413576B2, “Therapy for use in the treatment of tumors, acquired immunodeficiency syndrome and leukemias by dual immune biostimulation” (priority 2014, dated 2019).
